“And” between values parts separate entries of the source, which are not always exact repeats. Equal values may be shown once. Read-outs that look alike come from different tables or passages of the source.
How the values were obtained:
[1] = test system: hiPSC-CMs (human induced pluripotent stem cell-derived cardiomyocyte-like cells, lines C2 and C3); test: Multielectrode array (MEA) field potential recording: cFPD and FPmin; assay type: cell-based; conditions: for changes in cFPD (in words) / change in FPmin (in words): drug alone; for changes in cFPD (in words): CMs from both cell lines; for cFPD (normalized) after reversal of isoprenaline-reduced cFPD: beta-blocker applied after isoprenaline (0.1 μM); for FPmin (normalized values): baseline 100±0; for cFPD effect relative to human ETPC unbound range (in words): non-linear regression of normalized cFPD, dose range 10^−9-10^−4 M
Protocol: Human iPSC lines [MSnviPSNF2 (C2), MSnviPSNF3 (C3)] were maintained on 1% matrigel (BD Biosciences, CA, USA) and grown in chemically defined mTeSR1 medium (Stem Cell Technologies, VA, Canada). Care was taken to manually remove the differentiated areas (<10%) with the help of a scraper before passaging. Cells were washed with DMEM-F12 (Invitrogen, USA) and incubated with 1 mg/ml dispase (Sigma, USA) for 5-7 minutes. Cells were then washed with DMEM-F12 and colonies scrapped from the culture dishes. Controlled tituration of the colonies was performed to get small clumps of approximately 50-70 μm in size for replating on new matrigel coated dishes (1:6 split ratio).
Subsequently, EBs were plated on 0.1% gelatin coated dishes in EB medium without SB203580. […] Beating areas were manually cut after day 21 of differentiation and utilized for various experiments.
(§1) To characterize the electrophysiological properties of the hiPSC-CMs, a multielectrode array (MEA) recording system (Multichannel Systems, Reutlingen, Germany) was used. The contracting areas were microdissected and plated on gelatin coated MEA plates. The MEA system allows simultaneous recordings from 60 titanium nitride electrodes (30 μm) at high spatial (200 μm) and temporal (15 kHz) resolutions. To assess the effects of different drugs on the electrophysiological properties, the stock drugs in DMSO were diluted in medium (2 mL). All drugs utilized in the study were purchased from Sigma, USA. Extracellular recording were performed for 180-300 seconds at baseline and at 5 minutes after drug application. The local activation maps were generated using Cardio2D software (Multichannel Systems, Reutlingen, Germany). The recorded electrograms were also used to determine the local field potential (FP) duration (FPD).
Comparisons at each time point were conducted using analysis of variance (ANOVA), and all data are presented as mean values±s.e.m of three independent experiments. Differences were considered statistically significant at p≦0.05. Corrected field potential duration curves were fitted using the one phase decay algorithm from GraphPad Prism software.

[2] = test system: hiPSC-CMs; test: MEA conduction velocity; assay type: cell-based, human
Excerpt: as §1

[3] = test system: hiPSC-CMs; conditions: for modulation of beating rates (in words): beta-blocker applied alone; for effect on isoprenaline-induced increase in beating frequencies (in words): clusters initially treated with isoprenaline
Excerpt: as §1
The different agents were also evaluated to determine if these agents (drugs) could induce arrhythmia in hiPSC-CMs at supraphysiological ranges.

[4] = test system: contracting EBs (iPSC-derived cardiomyocyte-like cells); test: Beat rate variability analysis in beta-adrenergic response (power spectral density of RR intervals); assay type: cell-based, human; conditions: 0.1 μM isoprenaline, then 1 μM beta-blocker where stated
Excerpt: To study the autonomic modulations of beating period of the contracting EBs, power spectral density of beat-to-beat or RR intervals based on 5-min recordings from the MEA were used to derive the Total Power (TP), very low frequency power (VLF), low frequency power (LF), high frequency power (HF), LF (normalized unit), HF (normalized unit) and ratio of LF/HF of spectral of beat rate variability using software such as HRV Toolkit (physionet.org/tutorials/hrv-toolkit/, Harvard Medical School) or LabVIEW Biomedical Toolkit for heart rate variability. […] The data were obtained using iPSC-derived cardiomyocyte-like cells from an individual with genetic pre-disposition to cardiac arrhythmia (n=4; referring to 4 regional areas within an EB), and iPSC-derived cardiomyocyte-like cells from a normal individual without genetic pre-disposition to cardiac arrhythmia (n=10).

[5] = human, unbound therapeutic plasma concentration; cited from earlier work
[6] = over all three tested doses (range 0.01-10 μM)
[7] = EBs from individual with genetic disposition to arrhythmia (n=4)
[8] = EBs from normal healthy donor (n=10)

## CCN(CC)CC(=O)Nc1c(C)cccc1C [lidocaine, Lidocaine]
[1]
  changes in cFPD (in words): did not demonstrate any significant changes
[1]; maximal effects at 10 μM dosage
  effect on FPmin, dose-dependent treatment (in words): FPmin shortening
[2]; [6]
  reduction of conduction velocity: 40%

## O=C(NCC1CCCCN1)c1cc(OCC(F)(F)F)ccc1OCC(F)(F)F (centres unmarked) [flecainide, Flecainide]
[1]; 1 μM
  increase in cFPDs: 1.7 fold
[1]; 1 μM, C2 derived CMs, baseline 0.32±0.04 s, n=3
  cFPD: 0.55 ± 0.06 s
[1]
  change in FPmin (in words): did not show any significant change
[2]; 1 μM
  reduction of conduction velocity: 45%
[2]; lowest dose, 0.01 μM
  reduction of conduction velocity (in words): did not show any significant reduction
[3]; 10 μM
  increase in beating frequencies: 2 fold

## COc1ccc(CCN(C)CCCC(C#N)(c2ccc(OC)c(OC)c2)C(C)C)cc1OC (centres unmarked) [verapamil, Verapamil]
[3]
  effect on beating frequencies (in words): significantly reduced beating frequencies
[3]; 5 μM
  effect of prolonged exposure (in words): beating arrest

## CC(C)NCC(O)COc1cccc2ccccc12 (centres unmarked) [propranolol, Propranolol]
[1]; n=3
  cFPD (normalized) after reversal of isoprenaline-reduced cFPD: 98.3±4.5%
[1]
  change in FPmin (in words): did not have any significant effects
  changes in cFPD (in words): did not have any significant effects
[3]
  modulation of beating rates (in words): not apparent
  effect on isoprenaline-induced increase in beating frequencies (in words): reversed
[3]; higher doses, 10-100 μM
  effect on beating frequencies (in words): did not show any major effect

## CCCCc1oc2ccccc2c1C(=O)c1cc(I)c(OCCN(CC)CC)c(I)c1 [amiodarone, Amiodarone]
[1]; 1 μM
  cFPD prolongation: 37%
[1]; 1 μM, C2 derived CM, baseline 0.26±0.009 s, n=3
  cFPD: 0.36 ± 0.01 s
[1]; 1 μM, C2 derived CMs
  FPmin shortening: 25%
[1]; 1 μM, C2 derived CMs, n=3
  FPmin (normalized values): 73.6±3.8
[1]; 1 μM, C3 derived CMs, n=3, ns
  FPmin (normalized values): 90±2.7
[1]; 1 μM, C3 derived CMs, ns
  FPmin reduction: 10%
[3]; higher doses, 10-100 μM
  effect on beating frequencies (in words): increased beating frequencies

## CC(C)NCC(O)c1ccc(O)c(O)c1 (centres unmarked) [isoprenaline]
[1]; 0.1 μM
  cFPD reduction: 20%
[1]; 0.1 μM isoprenaline, baseline 100±0.0%, n=3
  cFPD (normalized): 81.2±2.4% and 79.6±3.4%
[4]; [7]
  HF (normalized unit): 38.864±16.674%
  LF (normalized unit): 61.136±16.674%
  LF/HF ratio: 1.897±1.052
  Total Power (TP) of beat rate variability: 0.464±0.047 ms^2
  high frequency power (HF): 0.064±0.095 ms^2
  low frequency power (LF): 0.058±0.043 ms^2
  very low frequency power (VLF): 0.341±0.167 ms^2
[4]; [8]
  HF (normalized unit): 25.494±2.381%
  LF (normalized unit): 74.505±2.380%
  LF/HF ratio: 2.949±0.326
  Total Power (TP) of beat rate variability: 0.645±0.001 ms^2
  high frequency power (HF): 0.017±0.002 ms^2
  low frequency power (LF): 0.050±0.001 ms^2
  very low frequency power (VLF): 0.578±0.002 ms^2
[3]; clusters treated with the beta-adrenergic agonist
  effect on beating frequencies (in words): significant increase in beating frequencies

## CC(C)NCC(O)c1ccc(NS(C)(=O)=O)cc1 (centres unmarked) [sotalol, Sotalol]
[1]; 50 μM
  cFPD prolongation: 65%
[1]
  change in FPmin (in words): did not show any significant change
  cFPD effect relative to human ETPC unbound range (in words): maximally observed within the human ETPC range
[5]
  ETPC unbound range: 1.8 to 14 µM
[3]; 500 μM
  increase in beating frequencies: 1.8 fold

## CC(C)(C)NCC(O)COc1cccc2c1CC(O)C(O)C2 (centres unmarked) [nadolol, Nadolol]
[1]; n=3
  cFPD (normalized) after reversal of isoprenaline-reduced cFPD: 92.3±1.5%
[1]
  change in FPmin (in words): did not have any significant effects
  changes in cFPD (in words): did not have any significant effects
  cFPD effect relative to human ETPC unbound range (in words): no significant cFPD prolongation within the ETPC unbound range
[5]
  ETPC unbound range: 0.18 to 0.80 µM
[3]
  modulation of beating rates (in words): not apparent
  effect on isoprenaline-induced increase in beating frequencies (in words): reversed

## C=C[C@H]1C[N@@]2CC[C@H]1C[C@@H]2[C@@H](O)c1ccnc2ccc(OC)cc12 [quinidine, Quinidine]
[1]; 10 μM, C2 cell line derived CMs
  FPmin shortening: 55%
[1]; 10 μM, C2 cell line derived CMs, baseline 100, n=3
  FPmin (normalized): 45±3.5%
[1]; 10 μM, C2 line derived CMs, baseline 0.31±0.03 s, n=3
  cFPD: 0.50 ± 0.05 s
[1]; 10 μM, C3 cell line derived CMs
  maximum FPmin shortening: 37%
[1]; 10 μM, CMs derived from C2 line
  cFPD prolongation: 62%
[1]; 10 μM, hiPSC-CMs (FIG. 1A, C)
  cFPD prolongation: 55%
[2]; [6]
  reduction of conduction velocity: 20-25%
[3]; 100 μM
  increase in beating frequencies: 3 fold
[3]; 100 μM, baseline 0.66±0.06 Hz, n=3
  beating frequency (BF): 1.84±0.08 Hz

Reference: US20140363841A1, “INDUCED PLURIPOTENT STEM CELL (IPSC)-DERIVED CARDIOMYOCYTE-LIKE CELLS AND USES THEREOF” (priority 2012, published 2014)
